According to patent US9586978B2, “Anti-viral compounds” (AbbVie Inc., priority 2009, dated 2017):
Like-named read-outs stand apart in the source and are kept apart here.

Legend:
[1] = test system: HCV genotype 1b replicon; assay: HCV genotype 1b replicon assay; format: cell-based, Hepatitis C virus
From the text: (§1) [drawing 14] employs a biphenyl linker between the imidazole moieties. See WO2008021927(BMS). The EC50 values of BMS-790052 against different HCV genotypes were shown by Nettles et al., “BMS-790052 is a First-in-class Potent Hepatitis C Virus (HCV) NS5A Inhibitor for Patients with Chronic HCV Infection: Results from a Proof-of-concept Study”, 59th Annual Meeting of the American Association for the Study of Liver Diseases (Oct. 31-Nov. 1, 2008, San Francisco, Calif.; www.natap.org/2008/AASLD/AASLD_06.htm). […] See also Gao et al., NATURE 465:96-100 (2010). The compounds in Table 1 use different linkers between the imidazole moieties. Table 1 depicts the EC50 values of these compounds when tested using respective replicon assays in the presence of 5% (v/v) fetal bovine serum (FBS).
(§2) Table 2 compares compounds containing unsubstituted benzimidazole to those containing halo-substituted benzimidazole. Anti-viral activities were assessed using wild-type replicons (e.g., 1b WT or 1a WT) as well as replicons containing specific NS5A mutations (e.g., 1b L28T, 1b Y93H, 1a L31V, 1a Y93C, 1a M28V, or 1a Q30E) in the absence of FBS.
(§3) Table 3 compares compounds with different linkers between the benzimidazole moieties. Anti-viral activities were determined using 1a and 1b replicon assays. “HP” refers to human plasma. […] As compared to the phenyl linker

[2] = test system: HCV genotype 3a replicon; assay: HCV genotype 3a replicon assay; format: cell-based, Hepatitis C virus
From the text: as §1

[3] = test system: HCV genotype 6a replicon; assay: HCV genotype 6a replicon assay; format: cell-based, Hepatitis C virus
From the text: as §1

[4] = test system: HCV genotype 5a replicon; assay: HCV genotype 5a replicon assay; format: cell-based, Hepatitis C virus; details: replicon assay in the presence of 5% (v/v) FBS
From the text: as §1

[5] = test system: HCV genotype 1a replicon; assay: HCV genotype 1a replicon assay; format: cell-based, Hepatitis C virus
From the text: as §1, §2, §3

[6] = test system: HCV genotype 2b replicon; assay: HCV genotype 2b replicon assay; format: cell-based, Hepatitis C virus
From the text: as §1

[7] = test system: HCV genotype 4a replicon; assay: HCV genotype 4a replicon assay; format: cell-based, Hepatitis C virus
From the text: as §1

[8] = test system: HCV genotype 2a replicon; assay: HCV genotype 2a replicon assay; format: cell-based, Hepatitis C virus
From the text: as §1

[9] = test system: HCV genotype 1a; details: observed by Nettles et al.; read-out: EC50 against HCV genotype 1a; cited from earlier work
[10] = test system: HCV genotype 4a; details: observed by Nettles et al.; read-out: EC50 against HCV genotype 4a; cited from earlier work
[11] = test system: HCV genotype 1b; details: observed by Nettles et al.; read-out: EC50 against HCV genotype 1b; cited from earlier work
[12] = test system: HCV genotype 3a; details: observed by Nettles et al.; read-out: EC50 against HCV genotype 3a; cited from earlier work
[13] = test system: different HCV genotypes; details: summary over genotypes, see Nettles et al.; cited from earlier work
[14] = test system: HCV genotype 5a; details: observed by Nettles et al.; read-out: EC50 against HCV genotype 5a; cited from earlier work
[15] = test system: HCV 2a, 2b, 3a and 4a replicon; assay: HCV 2a, 2b, 3a and 4a replicon assays in the absence of human plasma; format: cell-based; details: 3a and 4a replicons, absence of HP, versus Example 4.25
Protocol: The inhibitory effects of the compounds of the invention on HCV replication can be determined by measuring activity of the luciferase reporter gene. For example, replicon-containing cells can be seeded into 96 well plates at a density of 5000 cells per well in 100 μl DMEM containing 5% FBS. The following day compounds can be diluted in dimethyl sulfoxide (DMSO) to generate a 200× stock in a series of eight half-log dilutions. The dilution series can then be further diluted 100-fold in the medium containing 5% FBS. Medium with the inhibitor is added to the overnight cell culture plates already containing 100 μl of DMEM with 5% FBS. In assays measuring inhibitory activity in the presence of human plasma, the medium from the overnight cell culture plates can be replaced with DMEM containing 40% human plasma and 5% FBS. The cells can be incubated for three days in the tissue culture incubators after which time 30 μl of Passive Lysis buffer (Promega) can be added to each well, and then the plates are incubated for 15 minutes with rocking to lyse the cells. Luciferin solution (100 μl, Promega) can be added to each well, and luciferase activity can be measured with a Victor II luminometer (Perkin-Elmer). The percent inhibition of HCV RNA replication can be calculated for each compound concentration and the EC50 value can be calculated using nonlinear regression curve fitting to the 4-parameter logistic equation and GraphPad Prism 4 software.

[16] = test system: HCV 1b replicon containing NS5A mutation Y93H; assay: HCV 1b Y93H replicon assay; format: cell-based, Hepatitis C virus; details: transient transfection assays
Protocol: as §2

[17] = AUC value (as defined above); format: in vivo
[18] = test system: HCV 1a replicon L31M, Y93H or Y93N mutant; assay: HCV 1a replicon assays in the presence of 40% HP, mutants; format: cell-based; details: versus Example 109 of the '301 application
[19] = replicon assay in the presence of 5% (v/v) FBS, read-out: EC50 (nM) 1b
[20] = read-out: EC50 (nM) 3a, replicon assay in the presence of 5% (v/v) FBS
[21] = read-out: EC50 (nM) 6a, replicon assay in the presence of 5% (v/v) FBS
[22] = replicon assay in the presence of 5% (v/v) FBS, read-out: EC50 (nM) 1a
[23] = replicon assay in the presence of 5% (v/v) FBS, read-out: EC50 (nM) 2b
[24] = replicon assay in the presence of 5% (v/v) FBS, read-out: EC50 (nM) 4a
[25] = replicon assay in the presence of 5% (v/v) FBS, read-out: EC50 (nM) 2a

Work on COC(=O)N[C@H](C(=O)N1CCC[C@H]1c1ncc(C2=CCC(c3ccc(-c4cnc([C@@H]5CCCN5C(=O)[C@@H](NC(=O)OC)C(C)C)[nH]4)cc3)CC2)[nH]1)C(C)C (some centres unmarked) yielded an EC50 ([1]; Hepatitis C virus, replicon assay in the presence of 5% (v/v) FBS, read-out: EC50 (nM) 1b) of 0.03 nM, an EC50 ([2]; Hepatitis C virus, read-out: EC50 (nM) 3a, replicon assay in the presence of 5% (v/v) FBS) of 1.5 nM and an EC50 ([3]; Hepatitis C virus, read-out: EC50 (nM) 6a, replicon assay in the presence of 5% (v/v) FBS) of 0.5 nM. The EC50 ([4]; Hepatitis C virus) was 0.05 nM, the EC50 ([5]; Hepatitis C virus, replicon assay in the presence of 5% (v/v) FBS, read-out: EC50 (nM) 1a) was 0.12 nM and the EC50 ([6]; Hepatitis C virus, replicon assay in the presence of 5% (v/v) FBS, read-out: EC50 (nM) 2b) was 0.09 nM. It also gave an EC50 ([7]; Hepatitis C virus, replicon assay in the presence of 5% (v/v) FBS, read-out: EC50 (nM) 4a) of 0.03 nM and an EC50 ([8]; Hepatitis C virus, replicon assay in the presence of 5% (v/v) FBS, read-out: EC50 (nM) 2a) of 16 nM.
COC(=O)N[C@H](C(=O)N1CCC[C@H]1c1ncc(-c2ccc(C3CCC(c4cnc([C@@H]5CCCN5C(=O)[C@@H](NC(=O)OC)C(C)C)[nH]4)CC3)cc2)[nH]1)C(C)C (single isomer, unassigned) [drawing 17] showed an EC50 [1, 19] of 0.06 nM, an EC50 [2, 20] of 2.3 nM and an EC50 [3, 21] of 0.5 nM. It also gave an EC50 [4] of 0.08 nM, an EC50 [5, 22] of 0.71 nM and an EC50 [6, 23] of 0.4 nM. The EC50 [7, 24] was 0.04 nM and the EC50 [8, 25] was 9 nM.
With COC(=O)N[C@H](C(=O)N1CCC[C@H]1c1ncc(-c2ccc(C3CCC(c4cnc([C@@H]5CCCN5C(=O)[C@@H](NC(=O)OC)C(C)C)[nH]4)CC3)cc2)[nH]1)C(C)C (single isomer, unassigned) [drawing 18] the EC50 [1, 19] was 8.5 nM, the EC50 [2, 20] was over 10 nM and the EC50 [3, 21] was over 10 nM. For the same compound, the EC50 [4] was over 10 nM, the EC50 [5, 22] was over 10 nM and the EC50 [6, 23] was over 10 nM. The EC50 [7, 24] was 4 nM and the EC50 [8, 25] was over 100 nM.
In the case of COC(=O)N[C@H](C(=O)N1CCC[C@H]1c1ncc(-c2ccc(-c3ccc(-c4cnc([C@@H]5CCCN5C(=O)[C@@H](NC(=O)OC)C(C)C)[nH]4)cc3)cc2)[nH]1)C(C)C [BMS-790052], the EC50 [9] is given as 0.05 nM, the EC50 [10] is given as 0.012 nM and the EC50 [11] is given as 0.009 nM. For the same compound, the EC50 [12] was 0.127 nM, the EC50 [13] was at most 0.2 nM and the EC50 [14] was 0.033 nM.
For COC(=O)N[C@H](C(=O)N1CCC[C@H]1c1nc2cc([C@H]3CC[C@H](c4ccc5[nH]c([C@@H]6CCCN6C(=O)[C@@H](NC(=O)OC)C(C)C)nc5c4)N3c3cc(F)c(N4CCC(c5ccccc5)CC4)c(F)c3)ccc2[nH]1)C(C)C [Example 5.1, methyl{(2S)-1-[(2S)-2-{5-[(2R,5R)-1-[3,5-difluoro-4-(4-phenylpiperidin-1-yl)phenyl]-5-{2-[(2S)-1-{(2S)-2-[(methoxycarbonyl)amino]-3-methylbutanoyl}pyrrolidin-2-yl]-1H-benzimidazol-5-yl}pyrrolidin-2-yl]-1H-benzimidazol-2-yl}pyrrolidin-1-yl]-3-methyl-1-oxobutan-2-yl}carbamate], the “EC50 values, fold less than those of Example 4.25” value [15] was “at least 50 fold”, the EC50 ([1]; Hepatitis C virus, 40% human plasma, Table 5, read-out: EC50 (nM, in the presence of 40% HP) 1b) was 0.2 nM and the EC50 ([2]; Hepatitis C virus, read-out: EC50 (nM, in the absence of HP) 3a, absence of human plasma, Table 5) was at most 0.05 nM. The EC50 ([5]; Hepatitis C virus, 40% human plasma, Table 5, read-out: EC50 (nM, in the presence of 40% HP) 1a) was 0.1 nM, the “EC50 fold less than that of Example 37 of US 2010/0317568 against the 1b Y93H variant” value [16] was “at least 10 fold” and the EC50 ([6]; Hepatitis C virus, absence of human plasma, Table 5, read-out: EC50 (nM, in the absence of HP) 2b) was at most 0.05 nM. For the same compound, the EC50 ([7]; Hepatitis C virus, absence of human plasma, Table 5, read-out: EC50 (nM, in the absence of HP) 4a) was at most 0.05 nM, the “AUC value, fold greater than that of Example 2.9” value ([17]; versus Example 2.9) was “about 30 fold” and the EC50 ([8]; Hepatitis C virus, absence of human plasma, Table 5, read-out: EC50 (nM, in the absence of HP) 2a) was at most 0.05 nM.
For COC(=O)N[C@H](C(=O)N1CCC[C@H]1c1nc2cc([C@H]3CC[C@H](c4cc5[nH]c([C@@H]6CCCN6C(=O)[C@@H](NC(=O)OC)C(C)C)nc5cc4F)N3c3ccc(C(C)(C)C)cc3)c(F)cc2[nH]1)C(C)C [Example 6.1, methyl{(2S)-1-[(2S)-2-{5-[(2R,5R)-1-(4-tert-butylphenyl)-5-{5-fluoro-2-[(2S)-1-{(2S)-2-[(methoxycarbonyl)amino]-3-methylbutanoyl}pyrrolidin-2-yl]-1H-benzimidazol-6-yl}pyrrolidin-2-yl]-6-fluoro-1H-benzimidazol-2-yl}pyrrolidin-1-yl]-3-methyl-1-oxobutan-2-yl}carbamate], the “EC50 value, fold less than that of Example 109 of the '301 application” value [18] was “at least 5 fold” and the “AUC value, fold greater than that of Example 109 of the '301 application” value ([17]; versus Example 109 of the '301 application) was “about 9 fold”.
